# Data published in PMC10821532, “Sex and Cross-Sex Testosterone Treatment Alters Gamma-Hydroxybutyrate Acid Toxicokinetics and Toxicodynamics in Rats” (Pharmaceutics, 2024).
# Where two headings read alike, the source gives them in different places.
# Experiment: GHB toxicokinetic study, i.v. bolus, plasma and urine up to 8 h, noncompartmental analysis
# Type: in vivo, Sprague Dawley rats
# Conditions: for clearance / CL renal: Sprague Dawley, rat, iv; for CL renal: read-out: CLR - Renal clearance
# Method: Male and female Sprague Dawley (SD) rats, ovariectomized (OVX) females, and castrated (CST) males were obtained from Charles River (Wilmington, MA, USA) at 8 weeks of age. The animals were housed under controlled temperature and humidity with an artificial 12 h light/dark cycle, and food and water were available ad libitum. The animals were acclimatized for at least one week before experiments. Hormone treatment was conducted by implanting OVX female and CST male rats subcutaneously with 60-day release pellets containing 7.5 mg testosterone or corresponding placebo pellets (Innovative Research of America) at 10 weeks of age. After 21 days of hormone exposure, rats were utilized in toxicokinetic studies. Age-matched male and female rats were used as control groups. Female rats in the estrus stage were selected for the study. Estrus cycle stages of female rats were monitored daily by vaginal lavage smear, as described in previously published literature. The Institutional Animal Care and Use Committee (IACUC) at the University of the Pacific approved all experiments.
# Jugular vein cannulas were surgically implanted under anesthesia with ketamine/xylazine. Cannulas were flushed daily with heparinized saline to maintain patency. Rats were allowed a minimum of 72 h for recovery from surgery before the experiments were conducted. GHB was administered intravenously as a 1000 mg/kg i.v. bolus or 1500 mg/kg iv bolus with or without AR-C155858 (1 mg/kg i.v. bolus) via a jugular vein cannula to the animals at 13 weeks of age (N = 5–7 per group). Rats were dosed in metabolic cages with ad libitum access to water to allow for the concurrent collection of blood and urine samples for up to 8 h. GHB was administered as a 300 mg/mL solution in sterile water, and the time of administration was considered as time 0. AR-C155858 was administered as a 1 mg/mL solution in 10% cyclodextrin in normal saline 5 min after GHB administration. Blood samples (200 μL) were taken from the jugular vein cannula at different time points: 5, 10, 20, 30, 60, 90, 120, 180, 240, 270, 300, and 330 min for 1000 mg/kg and 10, 30, 60, 90, 120, 180, 240, 270, 300, 330, 360, and 390/480 min for 1500 mg/kg bolus with or without AR-C155858. Plasma samples were separated by centrifugation and stored at −20 °C. Urine samples were collected at 120, 240, and 360 min for 1000 mg/kg and 120, 240, and 390/480 min for 1500 mg/kg bolus with or without AR-C155858 post-dose; the total urine volume was determined, and the samples were stored at −20 °C.
# GHB in plasma and urine were quantified using a validated liquid chromatography/tandem mass spectrometry (LC/MS/MS) assay that was described previously. Briefly, for the preparation of plasma standards and quality controls (QCs), 5 μL of GHB-d6 and 5 μL of standard stock solution or QC stock solution were added to 45 μL of blank plasma. For each unknown plasma sample, 5 μL of GHB-d6 was added to 50 μL of plasma. Protein precipitation was then performed by the addition of 800 μL of acetonitrile with 0.1% formic acid, followed by centrifugation at 10,000 rpm for 20 min. 750 μL of the supernatant was transferred to a clean disposable glass tube and evaporated using a MultiVap Nitrogen Evaporator (Organomation, Berlin, MA, USA) under a nitrogen stream. Dried samples were reconstituted in 250 μL of 95:5 double-distilled water—acetonitrile with 0.1% acetic acid. For urine standards and QCs, 25 μL of blank urine, 5 μL of standard or QC stock solution, 5 μL of GHB-d6, and 465 μL of double-distilled water were mixed. For unknown urine samples, 25 μL of the sample was added to 5 μL of GHB-d6 and 470 μL of double-distilled water. The same LC/MS/MS method was used for GHB plasma and urine analyses. LC/MS/MS equipment consisted of an Agilent 1200 series UPLC consisting of an online degasser, binary pump, and autosampler (Agilent Technologies, Santa Clara, CA, USA) connected to a Agilent 6460 Triple Quad Mass Spectrometer. […]
# [1] = 1000 mg/kg GHB iv, OVX testosterone rats
# [2] = 1000 mg/kg GHB iv, intact female (estrus) rats
# [3] = 1000 mg/kg GHB iv, intact male rats
# [4] = 1500 mg/kg GHB + 1mg/kg AR-C 155858 iv, CST testosterone placebo rats
# [5] = 1500 mg/kg GHB + 1mg/kg AR-C 155858 iv, CST testosterone rats
# [6] = 1500 mg/kg GHB + 1mg/kg AR-C 155858 iv, OVX testosterone placebo rats
# [7] = 1500 mg/kg GHB + 1mg/kg AR-C 155858 iv, OVX testosterone rats
# [8] = 1500 mg/kg GHB + 1mg/kg AR-C 155858 iv, intact female (estrus) rats
# [9] = 1500 mg/kg GHB + 1mg/kg AR-C 155858 iv, intact male rats
# [10] = 1500 mg/kg GHB iv, CST testosterone placebo rats
# [11] = 1500 mg/kg GHB iv, CST testosterone rats
# [12] = 1500 mg/kg GHB iv, OVX testosterone placebo rats
# [13] = 1500 mg/kg GHB iv, OVX testosterone rats
# [14] = 1500 mg/kg GHB iv, intact female (estrus) rats
# [15] = 1500 mg/kg GHB iv, intact male rats
smiles,measurement,setting,value
"O=C(O)CCCO [GHB, Γ-hydroxybutyric acid]",AUC - Area under the curve of plasma concentration versus time profile,"1000 mg/kg GHB iv, CST testosterone placebo rats",222 ± 40.7 mg·min/mL
same,AUC - Area under the curve of plasma concentration versus time profile,"1000 mg/kg GHB iv, CST testosterone rats",197 ± 35.5 mg·min/mL
same,AUC - Area under the curve of plasma concentration versus time profile,"1000 mg/kg GHB iv, OVX testosterone placebo rats",181 ± 10.6 mg·min/mL
same,AUC - Area under the curve of plasma concentration versus time profile,[1],169 ± 25.9 mg·min/mL
same,CL - Total clearance,[1],6.0 ± 0.8 mL/min/kg
same,AUC - Area under the curve of plasma concentration versus time profile,[2],150 ± 16.6 mg·min/mL
same,fe – The fraction of drug eliminated from urine,[2],0.39 ± 0.07
same,AUC - Area under the curve of plasma concentration versus time profile,[3],224 ± 39.8 mg·min/mL
same,fe – The fraction of drug eliminated from urine,[3],0.48 ± 0.06
same,AUC,[4],195 ± 29.6 mg·min/mL
same,fe (fraction of drug eliminated in urine),[4],0.69 ± 0.13
same,AUC,[5],207 ± 40.4 mg·min/mL
same,fe (fraction of drug eliminated in urine),[5],0.74 ± 0.03
same,AUC,[6],162 ± 34.8 mg·min/mL
same,fe (fraction of drug eliminated in urine),[6],0.73 ± 0.05
same,AUC,[7],163 ± 24.9 mg·min/mL
same,fe (fraction of drug eliminated in urine),[7],0.75 ± 0.09
same,AUC,[8],184 ± 36.3 mg·min/mL
same,fe (fraction of drug eliminated in urine),[8],0.73 ± 0.07
same,AUC,[9],185 ± 13.2 mg·min/mL
same,fe (fraction of drug eliminated in urine),[9],0.74 ± 0.03
same,AUC,[10],309 ± 23.8 mg·min/mL
same,fe (fraction of drug eliminated in urine),[10],0.60 ± 0.05
same,AUC,[11],496 ± 97.6 mg·min/mL
same,fe (fraction of drug eliminated in urine),[11],0.44 ± 0.09
same,AUC,[12],271 ± 47.0 mg·min/mL
same,fe (fraction of drug eliminated in urine),[12],0.62 ± 0.08
same,AUC,[13],290 ± 122.7 mg·min/mL
same,CL (total clearance),[13],6.1 ± 2.4 mL/min/kg
same,fe (fraction of drug eliminated in urine),[13],0.41 ± 0.09
same,AUC,[14],336 ± 78.8 mg·min/mL
same,fe (fraction of drug eliminated in urine),[14],0.78 ± 0.12
same,AUC,[15],343 ± 117.8 mg·min/mL
same,fe (fraction of drug eliminated in urine),[15],0.87 ± 0.07
same,clearance,"both sexes, plasma, 1500 mg/kg, 1500 mg/kg GHB iv, animal groups other than testosterone-treated OVX rats, read-out: Metabolic clearance, other animal groups",< 2.2 mL/min/kg
same,CL renal,"female, plasma and urine, 1000 mg/kg, 1000 mg/kg GHB iv, OVX testosterone placebo rats",2.4 ± 0.1 mL/min/kg
same,clearance,"female, plasma and urine, 1000 mg/kg, 1000 mg/kg GHB iv, OVX testosterone placebo rats, read-out: CLm – Metabolic clearance",3.1 ± 0.3 mL/min/kg
same,CL renal,"female, plasma and urine, 1000 mg/kg, 1000 mg/kg GHB iv, OVX testosterone rats",2.4 ± 0.7 mL/min/kg
same,clearance,"female, plasma and urine, 1000 mg/kg, 1000 mg/kg GHB iv, OVX testosterone rats, read-out: CLm – Metabolic clearance",3.6 ± 0.6 mL/min/kg
same,CL renal,"female, plasma and urine, 1000 mg/kg, 1000 mg/kg GHB iv, intact female (estrus) rats",2.6 ± 0.5 mL/min/kg
